Reference: patent US9492462B2, “Composition for elastin production” (HUMAN MATRIX SCIENCES, LLC, priority 2007, dated 2016)

Key:
Type in all cases: cell-based, human
[1] = test system: skin biopsy explants derived from abdominal dermal scar; test: Organ culture of dermal scar explants, Movat's pentachrome stain
Experimental: In order to further test whether aldosterone and spironolactone would penetrate into skin tissue and affect elastogenesis, fragments of normal skin, stretch-marked skin and dermal scars were tested in organ culture system. Skin fragments were cut into multiple 1 mm^2 pieces and placed on top of metal grids immersed in culture medium containing 5% FBS and maintained for 10 days in the presence and absence of and then cultured for 7 days in the presence of 50 nM aldosterone, and 2 μM spironolactone, alone or in combinations, as described in figure legends. The media were changed every second day.
All organ cultures were fixed in 1% buffered formalin and their transversal serial histological sections were stained with Movat's pentachrome as previously described in Hinek et al. “Proteolytic digest derived from bovine Ligamentum Nuchae stimulates deposition of new elastin-enriched matrix in cultures and transplants of human dermal fibroblasts” J Dermatol Sci. September 2005; 39(3):155-66 hereby incorporated by reference in it's entirety. Morphometric analysis was performed as described above. In each analyzed group (three explants from each patient) low-power fields (1 mm^2) of 20 serial sections stained with Movat's pentachrome were analyzed and all structures stained black (elastic fibers) were counted.

[2] = test system: normal skin fibroblasts; test: Elastin immunostaining in 7-day cultures of normal skin fibroblasts; conditions: for deposition of elastin (anti-elastin immunostaining): 50 ng/ml IGF-I, 50 nM aldosterone, alone or together, vs untreated control
Experimental: (§1) Biological effects of aldosterone and spironolactone were tested in cultures of dermal fibroblasts derived from normal skin, stretch-marked skin and dermal scars derived from Caucasian females, of different ages ranging from 30-38 years old. All fibroblasts were originally isolated by allowing them to migrate out of skin explants and then passaged by trypsinization and maintained in alpha-minimum essential medium supplemented with 20 mM Hepes, 1% antibiotics and antimycotics, 1% L-Glutamate and 2% fetal bovine serum (FBS) as previously described Hinek et al. “Impaired elastic-fiber assembly by fibroblasts from patients with either Morquio B disease or infantile GM1-gangliosidosis is linked to deficiency in the 67-kD spliced variant of beta-galactosidase.” Am J Hum Genet. 2000 July; 67(1):23-36 hereby incorporated by reference in its entirety. In all experiments, consecutive passages 3-4 were tested. Cells were densely plated (50×10^5 cells/dish) to reach confluency and then cultured for 7 days in the presence and absence of different concentrations of (10 nM-1 μM) aldosterone, 2 μM spironolactone, alone or in combinations with other reagents, as described in figure legends.
7-day-old cultures of fibroblasts, which produce abundant ECM, were assessed. All cultures were fixed in cold 100% methanol at −20° C. for 30 min, and then incubated for 1 hour with 2 μg/ml of polyclonal antibody to tropoelastin. Cultures were then incubated for an additional hour with appropriate fluorescein-conjugated secondary antibody (GAR-FITC). Nuclei were counterstained with propidium iodide. Morphometric analysis of five separate cultures in each experimental group, immunostained with antibodies recognizing extracellular matrix components, was performed using a computerized video analysis system (Image-Pro Plus software 3.0, Media Cybernetics, Silver Spring, Md.) as described previously in Hinek et al. “Decreased elastin deposition and high proliferation of fibroblasts from Costello syndrome are related to functional deficiency in the 67-kD elastin-binding protein.” Am J Hum Genet. 2000 March; 66(3):859-72 and Hinek and Wilson, “Impaired elastogenesis in Hurler disease: dermatan sulfate accumulation linked to deficiency in elastin-binding protein and elastic fiber assembly.” Am J Pathol. 2000 March; 156(3):925-38 both of which are hereby incorporated by reference in their entireties.

[3] = test system: normal skin fibroblasts; test: [3H]-valine incorporation into insoluble elastin, normal skin fibroblasts; conditions: for mature, insoluble elastin concentration ([3H]-valine incorporation): 50 ng/ml IGF-I, 50 nM aldosterone, alone or in combination
Experimental: as §1
Quintuplicate, 4 day-old cultures of dermal fibroblasts maintained in the presence and absence of indicated reagents were additionally exposed for the 3 following days to 20 μCi [^3H]-valine. At the end of incubation period, the cell layers were extensively washed with PBS, scraped and boiled in 500 μl of 0.1 N NaOH for 30 minutes, to solubilize all matrix components except elastin. The resulting pellets containing the insoluble elastin were then solubilized by boiling in 200 μl of 5.7 N HCl for 1 hour, and the aliquots were mixed in scintillation fluid and counted. Aliquots taken from each culture were also used for DNA determination, according to Rodems et al., using the DNeasy Tissue System from Qiagen. Final results reflecting amounts of metabolically labeled insoluble elastin in individual cultures were normalized per their DNA content, and expressed as CPM/1 μg DNA.

[4] = test system: collagen type I mRNA; test: Collagen type I mRNA level by one-step RT-PCR in normal skin fibroblasts; conditions: 24 h; 50 nM and 1 μM aldosterone, alone or with 2 μM spironolactone
Experimental: (§2) Fibroblasts were cultured to confluency in medium with 2% FBS and then in serum-free medium for 24 hours. The medium was changed again and cells were incubated for the next 24 hours in the presence and absence of in the presence of 50 nM and 1 μM aldosterone, and 2 μM spironolactone, alone or in combinations, as described in figure legend. At the end of the incubation period total RNA was extracted using the RNeasy Mini Kit, according to manufacturer's instructions. Steady-state levels of elastin mRNA were then analyzed by One-Step RT-PCR analysis. Briefly, 1 μg of total RNA was added to each one step RT-PCR (Qiagen One-Step RT-PCR Kit), and reactions were set up according to manufacturer's instructions in a total volume of 25 μl. The reverse transcription step was performed for elastin, and GAPDH reactions at 50° C. for 30 minutes, followed by 15 minutes at 95° C. The elastin PCR reaction (sense primer: [NT] ID NO: 1), antisense primer: [NT] ID NO: 2); designed to produce a 255 bp product) was performed under the following conditions: 25 cycles at 94° C. denaturation for 20 s, 63° C. annealing for 20 s, 72° C. extension for 1 min; 1 cycle at 72° C. final extension for 10 min. The collagen Type I PCR reaction (sense [NT] ID NO: 3), antisense primer: [NT] […]

[5] = test system: elastin mRNA; test: Elastin mRNA level by one-step RT-PCR in normal skin fibroblasts; conditions: 24 h; 50 nM and 1 μM aldosterone, alone or with 2 μM spironolactone
Experimental: as §2

[6] = test system: skin biopsy explants derived from normal abdominal skin; test: Organ culture of normal skin explants, Movat's pentachrome stain; conditions: 10 days, 50 nM aldosterone alone or with 2 μM spironolactone
Experimental: (§3) In order to further test whether aldosterone and spironolactone would penetrate into skin tissue and affect elastogenesis, fragments of normal skin, stretch-marked skin and dermal scars were tested in organ culture system. Skin fragments were cut into multiple 1 mm^2 pieces and placed on top of metal grids immersed in culture medium containing 5% FBS and maintained for 10 days in the presence and absence of and then cultured for 7 days in the presence of 50 nM aldosterone, and 2 μM spironolactone, alone or in combinations, as described in figure legends. The media were changed every second day. All organ cultures were fixed in 1% buffered formalin and their transversal serial histological sections were stained with Movat's pentachrome as previously described in Hinek et al. “Proteolytic digest derived from bovine Ligamentum Nuchae stimulates deposition of new elastin-enriched matrix in cultures and transplants of human dermal fibroblasts” J Dermatol Sci. September 2005; 39(3):155-66 hereby incorporated by reference in it's entirety. Morphometric analysis was performed as described above. In each analyzed group (three explants from each patient) low-power fields (1 mm^2) of 20 serial sections stained with Movat's pentachrome were analyzed and all structures stained black (elastic fibers) were counted.

[7] = test system: fibroblasts derived from dermal scar tissue; test: Elastin immunostaining in 7-day cultures of dermal scar fibroblasts
Experimental: as §1
7-day-old cultures of fibroblasts, which produce abundant ECM, were assessed. All cultures were fixed in cold 100% methanol at −20° C. for 30 min, and then incubated for 1 hour with 2 μg/ml of polyclonal antibody to tropoelastin. Cultures were then incubated for an additional hour with appropriate fluorescein-conjugated secondary antibody (GAR-FITC). Nuclei were counterstained with propidium iodide. Morphometric analysis of five separate cultures in each experimental group, immunostained with antibodies recognizing extracellular matrix components, was performed using a computerized video analysis system (Image-Pro Plus software 3.0, Media Cybernetics, Silver Spring, Md.) as described previously in Hinek et al. “Decreased elastin deposition and high proliferation of fibroblasts from Costello syndrome are related to functional deficiency in the 67-kD elastin-binding protein.” Am J Hum Genet. […]

[8] = test system: fibroblasts derived from patient with stretch marks; test: [3H]-valine incorporation into insoluble elastin, stretch-mark fibroblasts; conditions: 50 nM aldosterone alone or with 2 μM spironolactone
Experimental: Biological effects of aldosterone and spironolactone were tested in cultures of dermal fibroblasts derived from normal skin, stretch-marked skin and dermal scars derived from Caucasian females, of different ages ranging from 30-38 years old. All fibroblasts were originally isolated by allowing them to migrate out of skin explants and then passaged by trypsinization and maintained in alpha-minimum essential medium supplemented with 20 mM Hepes, 1% antibiotics and antimycotics, 1% L-Glutamate and 2% fetal bovine serum (FBS) as previously described Hinek et al. “Impaired elastic-fiber assembly by fibroblasts from patients with either Morquio B disease or infantile GM1-gangliosidosis is linked to deficiency in the 67-kD spliced variant of beta-galactosidase.” Am J Hum Genet. […] In all experiments, consecutive passages 3-4 were tested. […] The resulting pellets containing the insoluble elastin were then solubilized by boiling in 200 μl of 5.7 N HCl for 1 hour, and the aliquots were mixed in scintillation fluid and counted. […] Final results reflecting amounts of metabolically labeled insoluble elastin in individual cultures were normalized per their DNA content, and expressed as CPM/1 μg DNA.

[9] = test system: fibroblasts derived from patient with stretch marks; test: Elastin immunostaining in 7-day cultures of fibroblasts from a patient with stretch marks; conditions: 50 nM aldosterone alone or with 2 μM spironolactone; vs untreated control or spironolactone only
Experimental: Biological effects of aldosterone and spironolactone were tested in cultures of dermal fibroblasts derived from normal skin, stretch-marked skin and dermal scars derived from Caucasian females, of different ages ranging from 30-38 years old. All fibroblasts were originally isolated by allowing them to migrate out of skin explants and then passaged by trypsinization and maintained in alpha-minimum essential medium supplemented with 20 mM Hepes, 1% antibiotics and antimycotics, 1% L-Glutamate and 2% fetal bovine serum (FBS) as previously described Hinek et al. “Impaired elastic-fiber assembly by fibroblasts from patients with either Morquio B disease or infantile GM1-gangliosidosis is linked to deficiency in the 67-kD spliced variant of beta-galactosidase.” Am J Hum Genet. 2000 July; 67(1):23-36 hereby incorporated by reference in its entirety. In all experiments, consecutive passages 3-4 were tested. Cells were densely plated (50×10^5 cells/dish) to reach confluency and then cultured for 7 days in the presence and absence of different concentrations of (10 nM-1 μM) aldosterone, 2 μM spironolactone, alone or in combinations with other reagents, as described in figure legends. 7-day-old cultures of fibroblasts, which produce abundant ECM, were assessed. […]

[10] = test system: fibroblasts derived from dermal scar tissue; test: [3H]-valine incorporation into insoluble elastin, dermal scar fibroblasts
Experimental: Biological effects of aldosterone and spironolactone were tested in cultures of dermal fibroblasts derived from normal skin, stretch-marked skin and dermal scars derived from Caucasian females, of different ages ranging from 30-38 years old. All fibroblasts were originally isolated by allowing them to migrate out of skin explants and then passaged by trypsinization and maintained in alpha-minimum essential medium supplemented with 20 mM Hepes, 1% antibiotics and antimycotics, 1% L-Glutamate and 2% fetal bovine serum (FBS) as previously described Hinek et al. “Impaired elastic-fiber assembly by fibroblasts from patients with either Morquio B disease or infantile GM1-gangliosidosis is linked to deficiency in the 67-kD spliced variant of beta-galactosidase.” Am J Hum Genet. 2000 July; 67(1):23-36 hereby incorporated by reference in its entirety. […]
Quintuplicate, 4 day-old cultures of dermal fibroblasts maintained in the presence and absence of indicated reagents were additionally exposed for the 3 following days to 20 μCi [^3H]-valine. […] The resulting pellets containing the insoluble elastin were then solubilized by boiling in 200 μl of 5.7 N HCl for 1 hour, and the aliquots were mixed in scintillation fluid and counted. […] Final results reflecting amounts of metabolically labeled insoluble elastin in individual cultures were normalized per their DNA content, and expressed as CPM/1 μg DNA.

[11] = test system: skin biopsy explants from abdominal stretch marks; test: Organ culture of stretch-marked skin explants, Movat's pentachrome stain; conditions: 10 days, 50 nM aldosterone alone or with 2 μM spironolactone
Experimental: as §3

[12] = FIG. 11, 50 nM aldosterone alone or with 2 μM spironolactone, vs untreated control

With `CC(C)(C)c1cc(C=C(C#N)C#N)cc(Br)c1O` [AG1024] as the compound, how does the “elastin deposition in AG1024-treated explants (Movat's pentachrome)” value ([1]; 5 μM AG1024 alone, with 50 nM aldosterone, or with aldosterone and 2 μM spironolactone) read?
Its value is “no net increase in elastin deposition”.

And the “effect on aldosterone-enhanced deposition of elastin (immunostaining)” value ([2]; 50 nM aldosterone with 1 μg/ml αIGF-IR or 5 μM AG1024)?
Its value is “inhibited”.

What about the “effect on IGF-I-enhanced deposition of elastin (immunostaining)” value ([2]; 50 ng/ml IGF-I with 1 μg/ml αIGF-IR or 5 μM AG1024) of the same compound?
The value was “inhibited”.

What about the “mature elastin concentration in the presence of IGF-I or aldosterone ([3H]-valine incorporation)” value ([3]; 1 μg/ml αIGF-IR or 5 μM AG1024 with 50 ng/ml IGF-I or 50 nM aldosterone) of the same compound?
Its value is “maintained at or below control levels”.

Which results are given for `C[C@]12CCC(=O)C=C1CC[C@@H]1[C@@H]2[C@@H](O)C[C@]2(C=O)[C@@H](C(=O)CO)CC[C@@H]12` [aldosterone]?
deposition of collagen (yellow, Movat's pentachrome) [1, 12]: increases in deposition; deposition of elastin (black, Movat's pentachrome) [1, 12]: increases in deposition; elastic fibers (Movat's pentachrome) ([1]; superficial and deep portion of scar, 10 days, 50 nM aldosterone alone or with 2 μM spironolactone): numerous elastic fibers; collagen type I mRNA (relative to GAPDH mRNA) [4]: net increase of collagen type I mRNA; concentration of elastin (anti-elastin immunostaining) ([2]; 7-day cultures, 10 nM, 50 nM, 1 μM aldosterone vs untreated): increased in an aldosterone concentration specific manner; deposition of elastin (anti-elastin immunostaining) ([2]; 7-day cultures): enhanced deposition of elastin; elastin mRNA (relative to GAPDH mRNA) [5]: increases in an aldosterone concentration dependent manner; elastic fibers / deposition of elastin (Movat's pentachrome) [6]: thicker and longer elastic fibers; elastin stained by anti-elastin antibodies ([7]; 50 nM aldosterone alone or with 2 μM spironolactone, vs untreated control or spironolactone only): increase in elastin; concentration of mature, insoluble elastin ([3H]-valine incorporation) [8]: increased; elastin stained by anti-elastin antibodies [9]: increase in elastin; deposition of insoluble mature elastin ([3H]-valine incorporation) ([10]; 50 nM aldosterone alone or with 2 μM spironolactone): enhanced; mature, insoluble elastin concentration ([3H]-valine incorporation) [3]: improved mature elastin concentrations over untreated control; elastic fibers / deposition of elastin (Movat's pentachrome) [11]: thicker and longer elastic fibers

With `CC(=O)S[C@@H]1CC2=CC(=O)CC[C@]2(C)[C@H]2CC[C@@]3(C)[C@@H](CC[C@@]34CCC(=O)O4)[C@H]12` [spironolactone] as the compound, how does the “elastin deposition in cells treated with increasing concentrations of aldosterone” value ([2]; 2 μM spironolactone added to 10 nM, 50 nM, 1 μM aldosterone, 7-day cultures) read?
The value was “did not alter elastin deposition”.

Which results are given for “IGF-I: ligand of insulin growth factor receptor I, added at 10-100 ng/ml”?
deposition of elastin (anti-elastin immunostaining) ([2]; 7-day cultures): enhances the deposition of elastin; elastin deposition (anti-elastin immunostaining) ([7]; 10 ng/ml IGF-I vs untreated control): increase in elastin depositions; elastin deposition (anti-elastin immunostaining) ([7]; 100 ng/ml IGF-I vs untreated control): even greater elastin deposition; deposition of mature, insoluble elastin ([3H]-valine incorporation) ([10]; 10 and 100 ng/ml IGF-I vs untreated control): dose dependent increase; mature, insoluble elastin concentration ([3H]-valine incorporation) [3]: improved mature elastin concentrations over untreated control
